Key:
[1] = biological target: T1, hLPAR1 (human lysophosphatidic acid receptor 1) (Homo sapiens, UniProt Q92633); assay: FLIPR intracellular calcium assay, hLPAR1 expressed in CHO-K1 cells; format: cell-based; conditions: antagonism of 1 μM LPA-induced calcium increase, CHO-K1 cells expressing hLPAR1; read-out: LPAR1 IC50
T1 construct: expressed in transfected cells
Experimental: The antagonist property of the compounds disclosed herein was determined using the FLIPR (fluorescence imaging plate reader) method, wherein the compounds are inhibitors for the intracellular calcium increase induced by activation of hLPAR1 (human lysophosphatidic acid receptor 1, accession No. NM_001401.4) expressed in CHO-K1 cells (Chinese hamster ovary cells K1, ATCC).
CHO-K1 cells stably expressing hLPAR1 were cultured in F-12 medium containing 10% FBS (fetal bovine serum, Gibco, 10099-141), 1% penicillin-streptomycin (Gibco, 15140-122) and 0.4 mg/mL hygromycin B (Gibco, 10687010) in a cell incubator (37° C., […]). During 18-24 h prior to the FLIPR experiment, cells at 250,000 cells/mL were seeded into a 96-well plate (25,000 cells/well) and incubated overnight in the cell incubator. On the day of the experiment, the medium was discarded and the cells were washed in a FLIPR buffer (0.3 mL of probenecid (Thermo, P36400), 0.6 mL of 1 M HEPES (Invitrogen, 15630080) and 29.1 mL of HBSS (Invitrogen, 14065056) per 30 mL of buffer). Each well was added with 75 μL of 1 mM Fluo-4 AM fluorescent dye (Thermo, F14202) and then the cells were subjected to dye-loading incubation at 37° C. for 1.0 h. The 96-well plate was then washed once with buffer, added with a buffer containing a test compound or vehicle at 50 μL per well and then incubated for 30 min at room temperature. The cell plate was then placed in the FLIPR for baseline fluorescence measurements (excitation at 485 nm and emission at 525-535 nm). An agonist (oleoyl-L-α-lysophosphatidic acid sodium salt (Sigma, L7260) at a final concentration of 1 μM) or a vehicle (ultrapure water) was then added at 50 μL/well, fluorescence values were measured for 2 min at 1-second intervals, and finally the output fluorescence counts were analyzed.

[2] = system: A2058 (human melanoma cells); assay: A2058 cell scratch assay (cell migration inhibition); format: cell-based; conditions: A2058 scratch area 0 h vs 24 h, 10 μM LPA, read-out: Cell migration inhibition rate
Experimental: The activity of the compounds disclosed herein at the cell level in vitro is evaluated by A2058 (human melanoma cells, Beina Bio, BNCC341099) cell scratch assay. The inhibitory activity of the compounds against LPAR1 can be reflected by inhibition of cell scratch healing.
A2058 cells in a T75 cm^2 cell culture flask were digested and gently pipetted into single cells, adjusted to a cell density of 4×10^5 cells/mL, and then seeded into a 24-well plate. After the cell confluence reached 80%, the cell culture plate was taken out and the original medium was discarded. Serum-free medium was then added, and the cells were starved overnight in an incubator (37° C., 5% CO2). The cell culture plate was then taken out, and cell scratches were made along the diameter of the wells using a 200 μL pipette tip. The cell culture plate was then added with 500 μL of serum-free medium and then shaken gently to wash away the residual cells on the scratched surface, and this was repeated twice. The medium was discarded and 500 μL of 1% FBS medium containing the compound was then added, and the mixture was incubated at 37° C. for 30 min. […] Olympus CKX53 was used to observe the scratches, and MShot image analysis system was used to take pictures and measure the scratch area at 0 h. Then the cell culture plate was incubated in the incubator (37° C., 5% CO2). 24 h later, the scratches were observed again with Olympus CKX53, and MShot image analysis system was used to take pictures and measure the scratch area at 24 h. Cell migration inhibition rate was calculated according to the following formula: […]

[3] = In vitro cytotoxicity assay in HepG2 cells, CCK-8 method; format: cell-based; conditions: human, 48 h incubation
Experimental: In vitro cytotoxicity assay for the compounds disclosed herein was performed in HepG2 cells using the CCK-8 method. HepG2 cells (Beina Bio) in the logarithmic growth phase were collected, the concentration of cell suspension was adjusted, and then the cells were plated on a 96-well cell culture plate at 50,000 cells/well. • The cells were then incubated overnight in a cell incubator (5% CO2, 37° C.), and after 80-90% cell confluence was achieved, test compounds or vehicle (DMSO) at various concentration gradients were added after medium change. The resulting mixture was incubated in the cell incubator (5% CO2, 37° C.) for 48 h. After the treatment, the medium in the plate was discarded. The plate was washed twice with PBS, added with CCK-8 working solution (Beyotime) at 100 μL per well, and then incubated at 37° C. for 1.5 h in the dark. Absorbance at OD450nm was measured for each well on a microplate reader, and CC50 value of each compound was analyzed and calculated.

[4] = In vitro metabolic stability, human liver microsomes; format: in vitro ADME; conditions: 1 mg/mL liver microsome protein, 37° C.
Experimental: (§1) The in vitro metabolic stability of the compounds disclosed herein was determined through incubation of liver microsomes of various species. A proper amount of test compound was added into a liver microsome reaction system (1 mg/mL liver microsome protein, 25 U/mL glucose-6 phosphate dehydrogenase, 1 mM NADP, 6 mM D-glucose 6-phosphate and 5 mM MgCl2), and then the mixture was incubated in a water bath kettle at 37° C. to start reaction. At each time point, 100 μL of the reaction system was added into a centrifuge tube containing 400 μL of internal standard working solution (containing a 200 ng/mL solution of dexamethasone, diclofenac, tolbutamide and labetalol in acetonitrile) precooled at 0° C. so as to stop the reaction, and the mixture was then centrifuged at 10,000 g for 10 min at 4° C. The supernatant was collected for LC-MS assay so as to obtain the values of in vitro metabolic half-life of the test compounds in liver microsomes of various species.

[5] = In vitro metabolic stability, rat liver microsomes; format: in vitro ADME; conditions: 1 mg/mL liver microsome protein, 37° C.
Experimental: as §1

[6] = In vitro metabolic stability, mouse liver microsomes; format: in vitro ADME; conditions: 1 mg/mL liver microsome protein, 37° C.
Experimental: as §1

T1 sequence (Q92633 whole entry): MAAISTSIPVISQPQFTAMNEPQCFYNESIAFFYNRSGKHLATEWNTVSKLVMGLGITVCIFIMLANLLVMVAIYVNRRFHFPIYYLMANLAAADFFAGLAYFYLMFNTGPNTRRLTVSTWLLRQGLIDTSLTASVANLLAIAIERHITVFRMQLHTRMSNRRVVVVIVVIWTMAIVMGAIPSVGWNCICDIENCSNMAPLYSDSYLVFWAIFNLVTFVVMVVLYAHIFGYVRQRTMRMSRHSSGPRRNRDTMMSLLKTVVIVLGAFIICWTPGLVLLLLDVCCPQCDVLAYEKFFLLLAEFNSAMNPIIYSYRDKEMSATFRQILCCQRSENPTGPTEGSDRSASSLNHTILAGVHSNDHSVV

CN(C(=O)NCc1c(-c2ccc(O[C@H]3CCC[C@H](C(=O)O)C3)c(C(F)(F)F)n2)nnn1C)C1CCCC1 (racemic) [Compound 26, (+/−)-(1S,3S)-3-((6-(5-((3-cyclopentyl-3-methylureido)methyl)-1-methyl-1H-1,2,3-triazol-4-yl)-2-(trifluoromethyl)pyridin-3-yl)oxo)cyclohexane-1-carboxylic acid]
IC50 [1]: ≤ 50 nM
inhibition [2]: 30 to 50%
CC50 at 48 h [3]: > 200000 nM
half-life [4]: > 30 min
half-life [5]: > 30 min
half-life [6]: > 30 min

CN(Cc1ccccc1)C(=O)/C=C/c1c(-c2ccc(O[C@H]3CCC[C@H](C(=O)O)C3)cc2)nnn1C (racemic) [Compound 2]
IC50 [1]: 50 to 300 nM
inhibition [2]: 0 to 30%
CC50 at 48 h [3]: > 200000 nM
half-life [4]: > 30 min
half-life [5]: > 30 min
half-life [6]: > 30 min

CN(C(=O)NCc1c(-c2ccc(O[C@H]3CCC[C@H](C(=O)O)C3)c(F)c2)nnn1C)C1CCCC1 [Compound 25]
IC50 [1]: 50 to 300 nM
inhibition [2]: 30 to 50%
CC50 at 48 h [3]: > 200000 nM
half-life [4]: > 30 min
half-life [5]: > 30 min
half-life [6]: > 30 min

CN(Cc1ccccc1)C(=O)CCc1c(-c2ccc(O[C@H]3CCC[C@H](C(=O)O)C3)cc2)nnn1C (racemic) [Compound 3]
IC50 [1]: 50 to 300 nM
inhibition [2]: 30 to 50%
CC50 at 48 h [3]: > 200000 nM
half-life [4]: > 30 min
half-life [5]: > 30 min
half-life [6]: > 30 min

CN(Cc1ccccc1)C(=O)OCc1c(-c2ccc(Oc3cc(Cl)ccc3C(=O)O)cc2)nnn1C [Compound 7, 4-chloro-2-(4-(5-(((benzyl(methyl)carbamoyl)oxo)methyl)-1-methyl-1H-1,2,3-triazol-4-yl)phenoxy)benzoic acid]
IC50 [1]: 300 to 10000 nM
inhibition [2]: 0 to 30%
CC50 at 48 h [3]: > 200000 nM
half-life [4]: > 30 min
half-life [5]: < 30 min
half-life [6]: > 30 min

CN(C(=O)OC1CCCC1)c1c(-c2ccc(O[C@H]3CCC[C@H](C(=O)O)C3)cc2)nnn1C (racemic) [Compound 31, (+/−)-(1S,3S)-3-(4-(5-(((cyclopentyloxy)carbonyl)(methyl)amino)-1-methyl-1H-1,2,3-triazol-4-yl)phenoxy)cyclohexane-1-carboxylic acid]
IC50 [1]: 50 to 300 nM
inhibition [2]: 30 to 50%
CC50 at 48 h [3]: > 200000 nM
half-life [4]: > 30 min
half-life [5]: > 30 min
half-life [6]: > 30 min

CN(C(=O)CCc1c(-c2ccc(O[C@H]3CCC[C@H](C(=O)O)C3)c(C(F)(F)F)n2)nnn1C)C1CCCC1 (racemic) [Compound 27-A, (+/−)-(1S,3S)-3-((6-(5-(3-(cyclopentyl(methyl)amino)-3-carbonylpropyl)-1-methyl-1H-1,2,3-triazol-4-yl)-2-(trifluoromethyl)pyridin-3-yl)oxo)cyclohexane-1-carboxylic acid]
IC50 [1]: ≤ 50 nM
inhibition [2]: 50 to 70%
CC50 at 48 h [3]: > 200000 nM
half-life [4]: 232 min
half-life [5]: 57 min
half-life [6]: 192 min

— US12378204B2, “Triazole compounds and preparation method therefor and use thereof” (WUHAN LL SCIENCE AND TECHNOLOGY DEVELOPMENT CO., LTD., priority 2019, dated 2025)
